The values below come from patent publication US20090192192A1, “INHIBITORS OF BIOFILM FORMATION OF GRAM-POSITIVE AND GRAM-NEGATIVE BACTERIA” (priority 2007, published 2009).

The experiment concerns Pseudomonas aeruginosa PAO1. Put plainly: MBEC assay, biofilm formation of P. aeruginosa PAO1. Type of experiment: cell-based. The settings on record: compound concentration 100 μM, class symbols. As for the experimental part: The compound to be tested was dissolved in DMSO to obtain a concentration that was 100 times that of the final concentration required (1 mM for the 10 μM assay and 10 mM for the 100 μM assay). 1.5 μL of the above solution was placed into each well of a 96 well plate (final volume in each well=150 μL, final DMSO concentration of 1% (v/v)).
To grow the organism and form a biofilm, a cryogenic stock of the test organism (at −70° C.) was used. A first sub-culture was streaked out onto TSA (tryptic soy agar), upon which the plate was incubated at 35±2° C. for 24 hours and stored wrapped in parafilm at 4° C. afterwards. From this first sub-culture, a second sub-culture was streaked out onto TSA. The plate was incubated at 35±2° C. for 24 hours. The second sub-culture was used within 24 hours starting from the time it was first removed from incubation. Using the second sub-culture an inoculum in 3 mL sterile water that matches a 0.5 McFarland Standard (1.5×10^8 cells per mL) was created in a glass test tube using a sterile cotton swab. 2.2 mL of this solution was diluted in 22 mL 100% TSB (tryptic soy broth) medium to a cell density of approximately […]. The diluted organism was inverted 3-5 times to achieve uniform mixing of the organism. One sample (100 μl) of the diluted organism was used for an inoculum check by serially diluting and spot plating on TSA.
To prepare a challenge plate, […] of the diluted organism was added to each well of a 96 well plate except the sterility control wells. The test compounds were added to the wells to make up final concentrations of 10 μM and […] (1.5 μL/well) in the designated location in the test plate. 128.5 μL of 100% universal neutralizer (1% Tween 80 in Cation Adjusted Mueller Hinton Broth, CAMHB) was placed in each of the wells. 130 μL of media was added to the growth control wells. 128.5 μL of media+1.5 μL of DMSO were added to a second set of growth control wells. 150 μL of media was added to the sterility controls. Each sample was run in triplicate. The plate was covered by a lid with a peg per well and wrapped in parafilm and placed on a shaker in a humidified incubator (GeneVac) at 35±+2° C. for 24 hours set at 110 rpm.
Rinse plate(s) of 0.9% saline (200 μL per well) were prepared in a sterile 96 well microtitre plate. Lid-associated pegs were rinsed in 0.9% saline for approximately 1-2 minutes. The peg lid was transferred to the recovery media (1.0% Tween 80 in CAMHB) then sonicated for 30 minutes to dislodge surviving biofilm. Following sonication, 100 μL from each well of the 96 well plate was placed into the first 12 wells of the first row of a 96 well microtiter plate. 180 μl of 0.9% sterile saline was placed in the remaining rows. A serial dilution (10^0-10^7) was prepared by moving 20 μl down each of the 8 rows. 20 μl from each well was removed and spot plated on a prepared TSA. In the remaining recovery plate, 100 μl of fresh growth media (1.0% Tween 80 in CAMHB) was placed in each well to replace the amount removed. The recovery plate was covered with a regular lid and incubated at 35±2° C. for 24 hours and read visually to confirm antimicrobial activity of the test compounds.
The compounds of the present disclosure have been tested regarding their efficiency to inhibit biofilm formation of Staphylococcus aureus U of C#18 (MRSA), Staphylococcus aureus 456 (MRSA), Staphylococcus epidermidis RP62A, and Pseudomonas aeruginosa PAO1.

As a reminder, the inhibition is the share of the control response that was lost under treatment. A high value points to strong suppression. In the case of `COCCOCCOCC(=O)Nc1ccc(F)cc1C(F)(F)F` [Example 126, N-(4-fluoro-2-(trifluoromethyl)phenyl)-2-(2-(2-methoxyethoxy)ethoxy)acetamide], the inhibition at 100 µM is below 20%.

On to `CCCCCCCCCCNC(=O)Nc1cc(C)nn1C(C)(C)C` [Example 70, 1-(1-tert-butyl-3-methylpyrazol-5-yl)-3-decylurea], for which the inhibition at 100 µM was above 50%. Then `CCCCCCCCCCNC(=O)Nc1ccc(F)cc1` [Example 53, 1-decyl-3-(4-fluorophenyl)urea], with below 20%. Then `CCN(CC)C(=O)C1CCCN(C(=O)CCCCCCN(C)CCN(C)C)C1` (centres unmarked) [Example 139, 1-(7-((2-(dimethylamino)ethyl)(methyl)amino)heptanoyl)-N,N-diethylpiperidine-3-carboxamide], with below 20%; and `CCN(CC)C(=O)C1CCCN(C(=O)CCCCCCCCCCCS(C)(=O)=O)C1` (centres unmarked) [Example 142, N,N-diethyl-1-(12-(methylsulfonyl)dodecanoyl)piperidine-3-carboxamide], with 20 to 50%. The same measure for `CCCCCCCCCCCC(=O)Nc1cc(C)nn1-c1ccccc1` [Example 31, N-(3-methyl-1-phenylpyrazol-5-yl)dodecanamide]: below 20%; for `CCCCOCCOCC(=O)Nc1cc(C)nn1C` [Example 122, 2-(2-butoxyethoxy)-N-(1,3-dimethylpyrazol-5-yl)acetamide]: below 20%; for `CCCCCCCCCCCC(=O)Nc1ccccc1F` [Example 15, N-(2-fluorophenyl)dodecanamide]: below 20%. In turn, `CCCCCCCCCCNC(=O)Nc1cc(C2CC2)nn1C(C)=O` [Example 67, 1-(1-acetyl-3-cyclopropylpyrazol-5-yl)-3-decylurea] gave an inhibition at 100 µM above 50%. The same measure for `CCCCNC(=O)Nc1cc(C2CC2)nn1C` [Example 39, 1-butyl-3-(3-cyclopropyl-1-methylpyrazol-5-yl)urea]: below 20%; for `CCCCCCCCCCNC(=O)Nc1nc(C(C)(C)C)cs1` [Example 78, 1-(4-tert-butylthiazol-2-yl)-3-decylurea]: 20 to 50%; for `CCCCCCCCCCNC(=O)Nc1ccc(F)cc1F` [Example 55, 1-decyl-3-(2,4-difluorophenyl)urea]: below 20%. Then `CCCCNC(=O)Nc1cc(C)nn1C` [Example 38, 1-butyl-3-(1,3-dimethylpyrazol-5-yl)urea], with below 20%; and `CCCCCCCCOCCC(=O)N1CCCC(C(=O)N(CC)CC)C1` (centres unmarked) [Example 137, N,N-diethyl-1-(3-(octyloxy)propanoyl)piperidine-3-carboxamide], with 20 to 50%; and `CCCCCCCCCCCC(=O)N1CCC(C(=O)Nc2ccc(F)cc2)C1` (centres unmarked) [Example 152, 1-dodecanoyl-N-(4-fluorophenyl)pyrrolidine-3-carboxamide], with 20 to 50%. `CCCCCCCCCCCCCCCCNC(=O)Nc1cc(C2CC2)nn1C` [Example 90, 1-(3-cyclopropyl-1-methylpyrazol-5-yl)-3-hexadecylurea] showed an inhibition at 100 µM below 20%. The same measure for `CCCCCCCCCCNC(=O)Nc1cc(-c2ccccc2)nn1C` [Example 71, 1-decyl-3-(1-methyl-3-phenylpyrazol-5-yl)urea]: below 20%; for `CCCCCCCCCCNC(=O)Nc1nc(-c2ccccc2)cs1` [Example 79, 1-decyl-3-(4-phenylthiazol-2-yl)urea]: 20 to 50%. Then `CCCCCCCCNC(=O)CC(=O)N1CCCC(C(=O)N(CC)CC)C1` (centres unmarked) [Example 144, N,N-diethyl-1-(3-(octylamino)-3-oxopropanoyl)piperidine-3-carboxamide], with 20 to 50%. Turning to `CCCCCCCCCC(=O)N1CCCC(C(=O)N(CC)CC)C1` (centres unmarked) [Example 135, 1-decanoyl-N,N-diethylpiperidine-3-carboxamide], the inhibition at 100 µM was above 50%. Then `CCCCCCCCCCNC(=O)N(C)c1cc(-c2ccccc2)nn1C` [Example 72, 3-decyl-1-methyl-1-(1-methyl-3-phenylpyrazol-5-yl)urea], with 20 to 50%; and `CCCCCCCCCCCC(=O)N1CCC(C(=O)N(CC)CC)C1` (centres unmarked) [Example 148, 1-dodecanoyl-N,N-diethylpyrrolidine-3-carboxamide], with above 50%. For the molecule `CCCCCCCCCCCC(=O)N1CCC(C(N)=O)CC1` [Example 131, 1-dodecanoylpiperidine-4-carboxamide], the inhibition at 100 µM was in the range of 20 to 50%. Then `CCCCCCCCCCNC(=O)N(C)[C@H](C)c1ccccc1` [Example 60, (R)-3-decyl-1-methyl-1-(1-phenylethyl)urea], with above 50%; and `CCCCCCCCCCCC(=O)N1CCCC(C(=O)NC)C1` (centres unmarked) [Example 132, 1-dodecanoyl-N-methylpiperidine-3-carboxamide], with above 50%; and `CCCCCCCCCCNC(=O)Nc1cc(C(C)(C)C)n[nH]1` [Example 68, 1-(3-tert-butylpyrazol-5-yl)-3-decylurea], with 20 to 50%. The same measure for `CCCCCCCCCCNC(=O)Nc1nnc(C2CC2)s1` [Example 75, 1-(5-cyclopropyl-1,3,4-thiadiazol-2-yl)-3-decylurea]: 20 to 50%. In turn, `CCCCCCCCCCNC(=O)Nc1cc(C2CC2)nn1C` [Example 66, 1-(3-cyclopropyl-1-methylpyrazol-5-yl)-3-decylurea] showed an inhibition at 100 µM above 50%. Then `CCCCCCCCCCNC(=O)Nc1cc(C)nn1-c1ccccc1` [Example 74, 1-decyl-3-(3-methyl-1-phenylpyrazol-5-yl)urea], with below 20%; and `CCCCCCCCOCCC(=O)Nc1nnc(-c2ccccc2)s1` [Example 118, 3-(octyloxy)-N-(5-phenyl-1,3,4-thiadiazol-2-yl)propanamide], with below 20%. In turn, `CCCCCCCCCCCC(=O)N1CCC(C(=O)N2CCCC2)C1` (centres unmarked) [Example 149, 1-(3-(pyrrolidine-1-carbonyl)pyrrolidin-1-yl)dodecan-1-one] had an inhibition at 100 µM above 50%. Then `CCCCCCCCCCCCNC(=O)Nc1cc(C2CC2)nn1C` [Example 84, 1-(3-cyclopropyl-1-methylpyrazol-5-yl)-3-dodecylurea], with below 20%. The same measure for `CCCCCCCCCCCCNC(=O)Nc1cc(C(C)(C)C)nn1C` [Example 85, 1-(3-tert-butyl-1-methylpyrazol-5-yl)-3-dodecylurea]: above 50%; for `CCCCCCCCCC(=O)NC(=O)N[C@H](C)c1ccccc1` [Example 98, (R)-N-(1-phenylethylcarbamoyl)decanamide]: above 50%.

With `CCCCCCCCCCNC(=O)N(C)c1ccccc1C(F)(F)F` [Example 58, 3-decyl-1-methyl-1-(2-(trifluoromethyl)phenyl)urea], the inhibition at 100 µM is above 50%. For the molecule `CCCCCCCCOCCC(=O)N[C@H]1CCOC1=O` [Example 112, N-(3-octyloxypropanoyl)-L-homoserinelactone], the inhibition at 100 µM was below 20%. Molecule `CCCCCCCCCCCC(=O)Nc1ccccc1S(=O)(=O)O` [Example 27, 2-dodecanamidobenzenesulfonic acid] had an inhibition at 100 µM of 20 to 50%. The same measure for `CCCCCCCCCCNC(=O)Nc1nnc(C(C)(C)C)s1` [Example 76, 1-(5-tert-butyl-1,3,4-thiadiazol-2-yl)-3-decylurea]: above 50%.
